Tests used:
[1] = system: human breast tumor (MDA-MB-231) cell lines; assay: MTS cell viability assay; format: cell-based
Experimental: (§1) All the 14 hybrid compounds synthesized via Scheme 1, along with the intermediates and starting compounds, were tested in vitro for their cytotoxicity against a panel of 6 human cancer cell lines. This panel involved human leukemia carcinoma (CCRF-CEM), human ovarian adenocarcinoma (SKOV-3), human breast tumor (MDA-MB-231), human prostate cancer (PC-3), androgen-independent human prostate cancer (DU-145), and human renal carcinoma (iSLK) cell lines. The compounds were tested at a concentration of 25 μM for incubation periods of 24 and 72 h. Standard anticancer drug doxorubicin at a concentration of 5 μM and DMSO were used as controls in all the cell assays. The antiproliferative profile of benzopyran-4-one-isoxazole conjugates is shown in Figure 2 (cf. Supplementary Materials for the data obtained for intermediates and starting materials Figure S28.1–S28.6, page no. 71–76).
(§2) Cell viability assays were performed using the MTS protocol. The in vitro cytotoxicity of the conjugates was evaluated using six human cancer cell lines, one human normal kidney cell line, and one mammalian normal kidney cell line, which included human leukemia carcinoma cell lines (CCRF-CEM), human ovarian adenocarcinoma cell lines (SKOV-3), human breast tumor cell lines (MDA-MB-231), human prostate cancer cell lines (PC-3), androgen-independent human prostate cancer cell lines (DU-145), human renal carcinoma (iSLK), human embryonic kidney cell lines (HEK-293), and normal mammalian kidney cell line (LLCPK) to determine the toxicity of the synthesized conjugates. CCRF-CEM cells were seeded at 50,000 cells in 0.1 mL per well in 96-well plates, and in the case of SKOV-3, MDA-MB-231, PC-3, DU-145, HEK-293, and LLCPK cell lines, the cells were seeded at 5000 cells in 0.1 mL per well in 96-well plates. The CCRF-CEM cells were seeded in RPMI-1640 media containing 2mM L-glutamine, 1.5 g/L sodium bicarbonate, supplemented with fetal bovine serum (FBS) 10% media, SKOV-3, MDA-MB-231, and LLCPK cells were seeded in MEME media with Earle’s salts and sodium bicarbonate, without L-glutamine, supplemented with fetal bovine serum (FBS) 10%, PC-3 cells were seeded in DMEM:F-12 containing 1:1 mixture with L-glutamine with HEPES, supplemented with fetal bovine serum (FBS) 10%, and DU-145 and HEK-293 cells were seeded in DMEM containing 4500 mg/L glucose, L-glutamine, and sodium bicarbonate, without sodium pyruvate, supplemented with FBS (10%), 24 h prior to the experiment. The compounds at a final concentration of 25 µM (higher concentration stock solution prepared in DMSO) were added to each well in triplicate and incubated for 24 and 72 h at 37 °C in a humidified atmosphere (95% air and 5% CO2). The cell viability was then determined by measuring the absorbance of the formazan product at 490 nm using a microplate reader using a SpectraMax M2 microplate spectrophotometer, Molecular Devices, San Jose, CA, USA. The percentage of cell survival was calculated as [(OD value of cells treated with the test mixture of compounds) − (OD value of culture medium)]/[(OD value of control cells) − (OD value of culture medium)] × 100%. IC50 values of compounds were calculated using non-linear regression analysis in GraphPad Prism (Boston, MA, USA).

[2] = system: human leukemia carcinoma (CCRF-CEM) cell lines; assay: MTS cell viability assay; format: cell-based; settings: Homo sapiens, CCRF-CEM
Experimental: as §1, §2

[3] = system: human ovarian adenocarcinoma (SKOV-3) cell lines; assay: MTS cell viability assay; format: cell-based; settings: SK-OV-3, conjugates at 25 μM, 72 h, read-out: Inhibition of Cancer Cell Lines SKOV-3
Experimental: as §1, §2

[4] = system: human prostate cancer (PC-3) cell lines; assay: MTS cell viability assay; format: cell-based
Experimental: as §1, §2

[5] = system: human renal carcinoma (iSLK) cell lines; assay: MTS cell viability assay; format: cell-based; settings: Homo sapiens; conjugates at 25 μM, 72 h; read-out: Inhibition of Cancer Cell Lines iSLK
Experimental: as §1, §2

[6] = Proteolytic stability in human serum (HPLC); format: in vitro ADME; settings: 37 °C
Experimental: These compounds were further explored towards degradation by proteolytic enzymes towards degradation. Compound 5a was investigated for proteolytic stability in the presence of human serum. It was incubated with human serum at 37 °C, and aliquots of the reaction mixture were analyzed via HPLC at different time points up to 2 h. The concentration of Compound 5a was measured by integrating the area under the curve (AUC) and correspondingly calculated from the standard curve of 5a at different concentrations (cf. Supplementary Materials, page no. 81–82).
The HPLC chromatogram of serum incubated with compound 5a for 80 min was illustrated in Figure 5. […]
HPLC analysis was carried out to evaluate the proteolytic stability of selected conjugate 5a in the presence of human serum. First, different concentrations of Compound 5a were analyzed using the analytical HPLC, and a standard curve was plotted for the different concentrations of Compound 5a versus the area under the curve. […] The initial time was recorded, and 100 μL aliquots of the reaction mixture were removed and added to methanol (200 μL) for precipitation of serum proteins in human serum. […] A linear gradient from 10% to 100% acetonitrile/water in 65 min with a flow rate of 1.0 mL/min was used, and the absorbance of the eluting peaks was detected at 254 nm. […]

[7] = average of three independent tests in triplicate

IC50 [1, 7]: 5.6 µM | IC50 [2, 7]: 11.6 µM | IC50 ([4]; PC3, average of three independent tests in triplicate): 17.8 µM | degradation on incubation with human serum ([6]; after 2 h of incubation with human serum): completely degraded | half-life at 50 µM ([6]; human, human serum (25% v/v in RPMI media), human serum): ~13.6 min
SMILES: Cc1noc(C)c1C(=O)OCc1coc2ccccc2c1=O [Compound 5a, (4-Oxo-4H-1-benzopyran-3-yl)methyl 3,5-dimethylisoxazole-4-carboxylate]
inhibition at 25 µM ([1]; conjugates at 25 μM, 72 h, read-out: Inhibition of Cancer Cell Lines MDA-MB-231): 78% | inhibition at 25 µM ([2]; conjugates at 25 μM, 72 h, read-out: Inhibition of Cancer Cell Lines CCRF-CEM): 81% | inhibition at 25 µM [3]: 69% | inhibition at 25 µM ([4]; conjugates at 25 μM, 72 h): 70% | inhibition at 25 µM [5]: 44%

From article PMC10224329, “Design, Synthesis, and Antiproliferative Activity of Benzopyran-4-One-Isoxazole Hybrid Compounds” (Molecules, 2023)
